{"source": "ChEMBL document CHEMBL5729330", "about": "“Galactoside inhibitor of galectins” (2022)", "data": [{"target": "Galectin-3 (Homo sapiens, UniProt P17931)", "sequence (P17931 whole entry)": "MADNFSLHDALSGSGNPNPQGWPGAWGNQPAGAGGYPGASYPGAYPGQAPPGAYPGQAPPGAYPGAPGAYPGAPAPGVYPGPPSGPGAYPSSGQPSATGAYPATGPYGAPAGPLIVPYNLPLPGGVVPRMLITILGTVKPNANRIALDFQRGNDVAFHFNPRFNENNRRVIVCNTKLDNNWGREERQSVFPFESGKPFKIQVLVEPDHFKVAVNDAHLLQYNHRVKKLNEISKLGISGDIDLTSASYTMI", "assay": "Fluorescence Anisotropy Assay: The affinity of Example 1-71 for galectins were determined by a fluorescence anisotropy assay where the compound was used as an inhibitor of the interaction between galectin and a fluorescein tagged saccharide probe", "units": {"Kd": "nM"}, "values": [{"smiles": "COC1[C@@H](Sc2cc(Br)cnc2C(=O)N2CCC2)OC(CO)[C@H](O)[C@@H]1n1cc(-c2cc(F)c(F)c(F)c2)nn1", "note": "(some centres undefined)", "Kd": 6}, {"smiles": "CCOC1[C@@H](Sc2cc(Br)cnc2C(=O)N2CCC2)OC(CO)[C@H](O)[C@@H]1n1cc(-c2ccc(Cl)c(F)c2)nn1", "note": "(some centres undefined)", "Kd": 8}, {"smiles": "CCOC1[C@@H](Sc2cc(Cl)cnc2C(=O)N2CCC2)OC(CO)[C@H](O)[C@@H]1n1cc(-c2ccc(Cl)c(F)c2)nn1", "note": "(some centres undefined)", "Kd": 17}, {"smiles": "CCOC1[C@@H](Sc2cc(Cl)cnc2C(=O)N2CCC2)OC(CO)[C@H](O)[C@@H]1n1cc(-c2cc(F)c(Cl)c(F)c2)nn1", "note": "(some centres undefined)", "Kd": 11}, {"smiles": "COC1[C@@H](Sc2cc(Cl)cnc2C(=O)N2CCC2)OC(CO)[C@H](O)[C@@H]1n1cc(-c2cc(F)c(Cl)c(F)c2)nn1", "note": "(some centres undefined)", "Kd": 16}, {"smiles": "COC1[C@@H](Sc2cc(Cl)cnc2C(=O)N2CCC2)OC(CO)[C@H](O)[C@@H]1n1cc(-c2ccc(Cl)c(F)c2)nn1", "note": "(some centres undefined)", "Kd": 21}, {"smiles": "COC1[C@@H](Sc2cc(Br)cnc2C(=O)N2CCC2)OC(CO)[C@H](O)[C@@H]1n1cc(-c2ccc(Cl)c(F)c2)nn1", "note": "(some centres undefined)", "Kd": 7}, {"smiles": "COC1[C@@H](Sc2cc(Cl)cnc2C(=O)N2CCC2)OC(CO)[C@H](O)[C@@H]1n1cc(-c2cc(F)c(F)c(F)c2)nn1", "note": "(some centres undefined)", "Kd": 10}, {"smiles": "CCOC1[C@@H](Sc2cc(Cl)cnc2C(=O)N2CCC2)OC(CO)[C@H](O)[C@@H]1n1cc(-c2cc(F)c(F)c(F)c2)nn1", "note": "(some centres undefined)", "Kd": 21}]}]}
